Measurements published in US10287267B2, “Isoquinolin-3-yl carboxamides and preparation and use thereof” (Samumed, LLC, priority 2016, dated 2019).
pEC50: −log10 of the molar value.

What was measured:
KC-GRO = assay: Secreted cytokines in lipopolysaccharide-stimulated BV-2 mouse microglial cells: KC-GRO; type: cell-based; conditions: BV-2 cells, compounds overnight, LPS 250 ng/mL 5 h
Experimental: (§1) Representative compounds were screened using the cell-based assay procedure for secreted cytokines in a Lipopolysaccharide-stimulated mouse glial cell line described below.
(§2) BV-2 cells (mouse microglial cells) were cultured in 1:1 DMEM medium supplemented with 10% FBS, and 1% penicillin/streptomycin.
(§3) BV-2 cells are plated at 35,000 cells/well in a volume of 100 ul for at least 4 hours before compounds are added. DMSO-resuspended compounds were first dispensed in a 96 well plate and serial diluted from 10 μM to 4.6 nM final concentration in medium. Compounds were added to cells overnight. Two hundred fifty ng per milliliter of lipopolysaccharide (Escherichia coli O55:B5, SIGMA) was added for 5 h. Supernatant is removed and saved for further cytokine detection. The original plates with seeded cells were tested for cytotoxicity by measure of adenosine triphosphate (ATP) release by adding CellTiter-Glo® diluted 1:4 in distilled water (G7573, Promega) and transferring lysed cells to a completely black 96-well plate to be read with the Cytation3. Supernatant was then diluted 1:2 with a diluent from V-PLEX cytokine Kit and directly tested for the secreted cytokines TNFα, IL-6 and KC-GRO using electrochemiluminescence (Meso Scale Discovery). The standard curve for each cytokine was used to convert the electrochemiluminescent signal into pg of protein per mL.

recombinant GSK3β kinase = recombinant GSK3β kinase (Homo sapiens (Human), UniProt P49841); assay: GSK3β kinase assay (Ser/Thr 09 peptide Z-lyte FRET); type: biochemical; conditions: 46 μM ATP, 1 h room temperature;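 also: kinase activity read as coumarin to fluorescein emission ratio, 11-point threefold dilutions from 10 µM to 0.0003 µM in duplicate, unphosphorylated and phosphorylated peptide as 0% and 100% controls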
Chain of recombinant GSK3β kinase (P49841 whole entry): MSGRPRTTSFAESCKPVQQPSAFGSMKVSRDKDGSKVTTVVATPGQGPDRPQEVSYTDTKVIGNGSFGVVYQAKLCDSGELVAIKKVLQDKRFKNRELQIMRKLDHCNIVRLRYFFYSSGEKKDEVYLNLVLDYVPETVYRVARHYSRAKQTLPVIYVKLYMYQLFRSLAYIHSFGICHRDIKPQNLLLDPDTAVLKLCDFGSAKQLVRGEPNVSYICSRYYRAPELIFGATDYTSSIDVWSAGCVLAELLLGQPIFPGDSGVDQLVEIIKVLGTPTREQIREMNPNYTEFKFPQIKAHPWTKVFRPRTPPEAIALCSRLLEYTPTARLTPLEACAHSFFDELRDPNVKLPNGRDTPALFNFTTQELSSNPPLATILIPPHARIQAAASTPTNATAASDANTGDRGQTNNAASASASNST

[1] = target: recombinant DYRK1A kinase (Homo sapiens (Human), UniProt Q13627); assay: DYRK1A kinase assay (Ser/Thr 18 peptide Z-lyte FRET); type: biochemical; conditions: 30 μM ATP, 1 h room temperature;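 also: Read-out is the coumarin to fluorescein emission ratio, referenced to unphosphorylated (0%) and phosphorylated (100%) Ser/Thr 18 peptide controls, values from dose-response curves by non-linear regression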
IL-6 [2] = assay: Secreted cytokines in lipopolysaccharide-stimulated BV-2 mouse microglial cells: IL-6; type: cell-based; conditions: Mus musculus; BV-2 cells, compounds overnight, LPS 250 ng/mL 5 h
Experimental: as §1, §2, §3

[3] = tested on: α-smooth muscle actin (αSMA) positive LL29 cells; assay: Inhibition of fibrotic process: αSMA in TGF-β1 treated primary human fibroblasts from IPF patients; type: cell-based; conditions: Homo sapiens, Fibroblast; for pEC50: 96 h, Table 8, LL29 fibroblasts from IPF patients, TGF-β1 20 ng/mL, 4 days, dose-response 10 μM to 0.94 nM;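 as to all read-outs here: controls were TGF-β1 stimulated wells with DMSO vehicle (positive) and cells given DMSO alone (negative), cultured in F12 medium with 1% fetal bovine serum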
[4] = tested on: Tau phosphorylation at Ser396 (pSer396); assay: Tau phosphorylation assay (pSer396 ELISA / western blot) in SH-SY5Y cells; type: cell-based, human; conditions: Homo sapiens; SH-SY5Y cells, overnight (16-18 h) exposure; read-out: pSer396 Tau EC50;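 also: EC50 for reduction of Tau pSer396 in lysed cells, measured by colorimetric ELISA or chemiluminescent western blot, both using the same pSer396 antibody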
IL-6 [5] = assay: IL-6 inhibition in LPS-stimulated human peripheral blood mononuclear cells (HTRF); type: cell-based; conditions: Homo sapiens, PBMC; for inhibition at 10 µM: read-out: percent value in parentheses beside EC50 >10 μM; for pEC50: Table 9, huPBMCs, LPS 50 ng/mL, 22 hours, dose-response starting from 10 μM;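 as to all read-outs here: IL-6 detected by HTRF with an XL665- and Cryptate-labelled anti-IL-6 antibody pair, samples run in duplicate, EC50 obtained from a four-parameter Levenberg-Marquardt curve fit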
Experimental: After 22 hour incubation, a mixture of anti-IL6 XL665 and anti-IL-6 Cryptate diluted in reconstitution buffer (Catalog #62IL6PEC, Cisbio Inc., Bedford, Mass.) was added to each well. […] All samples were processed in duplicate. […] EC50 was determined using software generated by Dotmatics Limited (Windhill Bishops Stortford Herts, UK) using the Levenberg-Marquardt 4 parameter fitting procedure with finite different gradients.

TNFα = assay: Secreted cytokines in lipopolysaccharide-stimulated BV-2 mouse microglial cells: TNFα; type: cell-based; conditions: BV-2 cells, compounds overnight, LPS 250 ng/mL 5 h
Experimental: as §1, §2, §3

[6] = tested on: Wnt pathway (Sp5-Luc reporter, TCF/LEF binding sites) in SW480 colon carcinoma cells; assay: Screening assay for Wnt activity: Sp5-Luc reporter gene assay; type: cell-based, human; conditions: Homo sapiens; Sp5-Luc reporter, SW480 cells, 36 to 48 hours;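 also: firefly luciferase luminescence read in stably transduced SW480 cells carrying the Sp5 promoter reporter with eight TCF/LEF sites, compounds given in 0.1% DMSO final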
Experimental: The screening assay for Wnt activity is described as follows.
Following incubation, 15 μl of BriteLite Plus luminescence reagent (Perkin Elmer) was added to each well of the 384-well assay plates. The plates were placed on an orbital shaker for 2 min and then luminescence was quantified using the Envision (Perkin Elmer) plate reader.

[7] = tested on: SW480 colon carcinoma cells; assay: Cell viability assay (CellTiter-Glo); type: cell-based, human; conditions: Homo sapiens; for pEC50: 96 h, SW480 cells, CellTiter-Glo, four days incubation

Compound | pEC50 (KC-GRO) | pEC50 (recombinant GSK3β kinase) | pEC50 [1] | pEC50 (IL-6 [2]) | pEC50 [3] | pEC50 [4] | inhibition at 10 µM (IL-6 [5]) | pEC50 (IL-6 [5]) | pEC50 (TNFα) | pEC50 [6] | pEC50 [7] | inhibition at 10 µM ([7]; SW480, read-out: percent inhibition at 10 μM) | inhibition at 10 µM ([3]; read-out: percent value in parentheses beside EC50 >10 μM)
CN1CCN(CC(=O)Nc2cc3cc(-c4cn(C)nn4)ccc3cn2)CC1 [Compound 500, N-(6-(1-Methyl-1H-1,2,3-triazol-4-yl)isoquinolin-3-yl)-2-(4-methylpiperazin-1-yl)acetamide] | 8.15 | 7.64 | 7.97 | 7.47 | 6.17 | 6.41 | 4% | < 5.00 | 5.92 | 5.49 | < 5.00 | 25.1% | –
CN1CCC(C(=O)Nc2cc3cc(-c4cnn(C)c4)c(F)cc3cn2)CC1 [Compound 966, N-(7-Fluoro-6-(1-methyl-1H-pyrazol-4-yl)isoquinolin-3-yl)-1-methylpiperidine-4-carboxamide] | 7.15 | 7.49 | 8.70 | 7.66 | 7.85 | 6.63 | – | – | 7.22 | 5.80 | 6.59 | – | –
Cn1cc(-c2ccc3cnc(NC(=O)C4CCN(CC(C)(C)O)CC4)cc3c2)cn1 [Compound 1006, 1-(2-Hydroxy-2-methylpropyl)-N-(6-(1-methyl-1H-pyrazol-4-yl)isoquinolin-3-yl)piperidine-4-carboxamide] | 7.57 | 7.30 | 8.52 | 7.96 | 7.21 | 6.53 | – | 5.95 | 7.62 | 6.15 | 6.23 | – | –
Cc1ncc(-c2ccc3cnc(NC(=O)[C@H]4CC[C@H](N(C)C)CC4)cc3c2)o1 [Compound 1017, trans-4-(dimethylamino)-N-(6-(2-methyloxazol-5-yl)isoquinolin-3-yl)cyclohexane-1-carboxamide] | 7.66 | 7.12 | 8.51 | 7.62 | 7.01 | 6.49 | – | 6.18 | 7.54 | 6.21 | 6.18 | – | –
Cc1nnc(-c2ccc3cnc(NC(=O)C4CCN(CC(C)C)CC4)cc3c2)o1 [Compound 1020, 1-Isobutyl-N-(6-(5-methyl-1,3,4-oxadiazol-2-yl)isoquinolin-3-yl)piperidine-4-carboxamide] | 6.15 | 7.89 | 7.98 | 7.06 | < 5.00 | 7.31 | – | 5.93 | 6.22 | 5.94 | 5.99 | – | 30.6%
Cc1ncc(-c2ccc3cnc(NC(=O)[C@H]4CC[C@H](N5CCOCC5)CC4)cc3c2)o1 [Compound 1064, trans-N-(6-(2-methyloxazol-5-yl)isoquinolin-3-yl)-4-morpholinocyclohexane-1-carboxamide] | 7.85 | 6.90 | 8.17 | 8.22 | – | 6.96 | – | 5.46 | 7.52 | 5.39 | 5.31 | – | –
CN1CCC(C(=O)Nc2cc3cc(-c4nnc(N(C)C)o4)ccc3cn2)CC1 [Compound 1076, N-(6-(5-(dimethylamino)-1,3,4-oxadiazol-2-yl)isoquinolin-3-yl)-1-methylpiperidine-4-carboxamide] | 6.54 | 7.96 | 8.08 | 8.10 | – | 7.39 | 3% | < 5.00 | 5.74 | 6.19 | 5.80 | – | –
